# Target: human SGLT1 (Homo sapiens (Human), UniProt P13866)
# Test: SGLT1 inhibitory activity: 14C-AMG uptake into CHO-K1 cell line stably expressing human SGLT1
# Assay type: cell-based
# Conditions: 14C-AMG uptake, CHO-K1 cells expressing human SGLT1
# How it was run: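 CHO-K1 cells stably expressing human SGLT1 were pre-incubated 20 min in Na(−) buffer (pH 7.4). Test compound in Na(+) buffer with BSA was added with ¹⁴C-AMG (8 kBq) plus unlabelled AMG (2 mM in the added solution) for 1 h at 37 °C.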
# Sequence of human SGLT1 (P13866 whole entry): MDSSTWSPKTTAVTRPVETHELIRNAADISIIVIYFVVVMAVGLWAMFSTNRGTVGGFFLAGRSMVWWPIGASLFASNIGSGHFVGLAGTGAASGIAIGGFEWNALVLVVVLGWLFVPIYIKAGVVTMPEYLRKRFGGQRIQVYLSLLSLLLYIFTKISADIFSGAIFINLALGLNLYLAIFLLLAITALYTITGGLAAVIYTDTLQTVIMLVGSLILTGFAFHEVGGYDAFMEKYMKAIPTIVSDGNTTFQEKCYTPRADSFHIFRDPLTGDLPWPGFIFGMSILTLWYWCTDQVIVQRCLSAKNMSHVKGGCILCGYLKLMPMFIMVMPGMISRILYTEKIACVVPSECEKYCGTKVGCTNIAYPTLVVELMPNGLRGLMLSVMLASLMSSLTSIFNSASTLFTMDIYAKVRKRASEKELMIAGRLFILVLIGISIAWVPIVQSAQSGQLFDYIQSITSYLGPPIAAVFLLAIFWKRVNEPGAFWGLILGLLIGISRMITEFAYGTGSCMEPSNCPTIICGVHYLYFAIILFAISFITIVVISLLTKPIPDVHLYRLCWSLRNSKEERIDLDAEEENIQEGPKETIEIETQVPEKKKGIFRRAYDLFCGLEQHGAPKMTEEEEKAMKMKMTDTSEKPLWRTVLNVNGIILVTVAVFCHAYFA
row,Structure (SMILES),IC50
1,O=C1C[C@@H](C(=O)Nc2cc(-c3cccc(OC(F)(F)F)c3)n(-c3ccc(F)cc3)n2)CN1 [Example 147],15 nM
2,CCC(F)(F)c1cccc(-c2cc(NC(=O)[C@H]3CNC(=O)C3)nn2-c2ccccc2F)c1 [Example 182],3.8 nM
3,CCC(F)(F)c1cccc(-c2cc(NC(=O)[C@H]3CNC(=O)[C@@H]3C)nn2C2CCOCC2)c1 [Example 179],19 nM
4,O=C1C[C@H](C(=O)Nc2cc(-c3cccc(C(F)(F)F)c3)n(-c3ccccc3)n2)CN1 [Example 28],52 nM
5,"CCC(F)(F)c1cccc(-c2cc(NC(=O)C3CCC(=O)NC3)nn2-c2cccc(F)c2)c1 (single isomer, unassigned) [Example 171]",8.3 nM
6,C[C@H]1C(=O)NC[C@@H]1C(=O)Nc1cc(-c2cccc(C(F)(F)F)c2)n(-c2cccc(F)c2)n1 [Example 209],9.2 nM
7,CCC(F)(F)c1cccc(-c2cc(NC(=O)[C@H]3CNC(=O)C3)nn2-c2ccccc2C)c1 [Example 144],1.3 nM
8,C[C@H]1C(=O)NC[C@@H]1C(=O)Nc1cc(-c2cccc(OCC(F)(F)F)c2)n(-c2ccc(F)cc2)n1 [Example 212],5.8 nM
9,O=C1C[C@H](C(=O)Nc2cc(C3CCCCC3)n(-c3ccccc3)n2)CN1 [Example 41],1900 nM
10,"C[C@H]1C(=O)NC[C@@H]1C(=O)Nc1cc(-c2cccc(OC(F)(F)F)c2)n(-c2ccc(F)cc2)n1 [Example 2, (3R,4R)-4-methyl-5-oxopyrrolidine-3-carboxylic acid[1-(4-fluorophenyl)-5-(3-(trifluoromethoxy)phenyl)-1H-pyrazol-3-yl]amide]",3.4 nM
11,O=C1C[C@@H](C(=O)Nc2cc(-c3cccc(C(F)(F)F)c3)n(-c3ccc(F)cc3)n2)CN1 [Example 204],18 nM
12,CCC(F)(F)c1cccc(-c2cc(NC(=O)[C@H]3CNC(=O)C3)nn2-c2ccc(Cl)cc2)c1 [Example 141],5.5 nM
13,C[C@H]1C(=O)NC[C@@H]1C(=O)Nc1cc(-c2cccc(OCC(F)(F)F)c2)n(-c2cccc(F)c2)n1 [Example 222],4.1 nM

# Continued, values first:
row,IC50,Structure (SMILES)
1,1.6 nM,CC(C)Cc1cccc(-c2cc(NC(=O)[C@H]3CNC(=O)C3)nn2-c2ccccc2)c1 [Example 70]
2,4.7 nM,CCC(F)(F)c1cccc(-c2cc(NC(=O)[C@H]3CNC(=O)C3)nn2-c2ccccc2)c1 [Example 72]
3,270 nM,CCOc1cccc(-c2cc(NC(=O)[C@@H]3CNC(=O)C3)nn2-c2ccccc2)c1 [Example 31]
4,10 nM,CC(C)c1cccc(-c2cc(NC(=O)[C@H]3CNC(=O)C3)nn2-c2ccccc2)c1 [Example 54]
5,9.8 nM,CCCc1cccc(-c2cc(NC(=O)[C@@H]3CNC(=O)C3)nn2-c2cccc(F)c2)c1 [Example 104]
6,20 nM,"CCCc1cccc(-c2cc(NC(=O)[C@H]3CNC(=O)N3)nn2-c2ccccc2)c1 [Example 8, (R)-2-oxoimidazolidine-4-carboxylic acid[1-phenyl-5-(3-propylphenyl)-1H-pyrazol-3-yl]amide]"
7,3.5 nM,CC(C)Cc1cccc(-c2cc(NC(=O)[C@@H]3CNC(=O)C3)nn2-c2ccccc2)c1 [Example 71]

# Same assay, conditions: 14C-AMG uptake, CHO-K1 cells stably expressing human SGLT1
row,Structure (SMILES),IC50
1,CC(C)(OCc1cc(F)cc(-c2cc(NC(=O)[C@H]3CNC(=O)N3)nn2-c2ccc(F)cc2)c1)C(F)(F)F [Example 602],28 nM
2,"C[C@@H](OCc1cc(F)cc(-c2cc(NC(=O)[C@@H]3CNC(=O)C3)nn2-c2ccc(Cl)cc2)c1)C(F)(F)F [Example 236, (S)-5-oxopyrrolidine-3-carboxylic acid{1-(4-chlorophenyl)-5-[3-fluoro-5-((R)-2,2,2-trifluoro-1-methylethoxymethyl)phenyl]-1H-pyrazol-3-yl}amide]",5.35 nM
3,Cc1cc(-c2cc(NC(=O)[C@@H]3CNC(=O)C3)nn2-c2ccccc2)cc(C(C)(C)C)c1 [Example 411],4.4 nM
4,O=C1C[C@H](C(=O)Nc2cc(-c3cc(Cl)cc(COCC(F)(F)F)c3)n(-c3ccccc3)n2)CN1 [Example 586],46 nM
5,CC(C)(C)/C=C/c1cccc(-c2cc(NC(=O)[C@@H]3CNC(=O)C3)nn2-c2ccccc2)c1 [Example 531],30 nM
6,C[C@@H](OCc1cccc(-c2cc(NC(=O)[C@@H]3CNC(=O)C3)nn2-c2cccc(O)c2)c1)C(F)(F)F [Example 441],9 nM
7,"C[C@@H](OCc1cc(F)cc(-c2cc(NC(=O)[C@@H]3CNC(=O)C3)nn2-c2ccccc2F)c1)C(F)(F)F [Example 237, (S)-5-oxopyrrolidine-3-carboxylic acid{1-(2-fluorophenyl)-5-[3-fluoro-5-((R)-2,2,2-trifluoro-1-methylethoxymethyl)phenyl]-1H-pyrazol-3-yl}amide]",3.85 nM
8,COc1ccc(F)c(-n2nc(NC(=O)[C@@H]3CNC(=O)C3)cc2-c2cccc(COCC(F)(F)F)c2)c1 [Example 522],5.3 nM
9,O=C1NC[C@H](C(=O)Nc2cc(-c3cccc(COCC(F)(F)F)c3)n(-c3ccccc3)n2)N1 [Example 349],72 nM
10,CC(C)Oc1cccc(-n2nc(NC(=O)[C@@H]3CNC(=O)C3)cc2-c2cccc(CO[C@H](C)C(F)(F)F)c2)c1 [Example 454],2 nM
11,C[C@@H](OCc1cc(Cl)cc(-c2cc(NC(=O)[C@@H]3CNC(=O)C3)nn2-c2ccccc2F)c1)C(F)(F)F [Example 577],6.7 nM

# Second part, the molecule after the results:
row,IC50,Structure (SMILES)
1,19 nM,O=C1C[C@H](C(=O)Nc2cc(-c3cccc(COC(F)(F)F)c3)n(-c3ccccc3)n2)CN1 [Example 399]
2,71 nM,CCCc1cccc(-c2cc(NC(=O)[C@@H]3CNC(=O)N3CCC)nn2-c2ccccc2)c1 [Example 297]
3,23 nM,CCCc1cccc(-c2cc(NC(=O)[C@H]3CNC(=O)O3)nn2-c2ccccc2)c1 [Example 258]
4,17.5 nM,CC(C)OCc1cccc(-c2cc(NC(=O)[C@H]3CNC(=O)C3)nn2-c2ccccc2)c1 [Example 311]
5,5.25 nM,CCCc1cccc(-c2cc(NC(=O)[C@@H]3CNC(=O)C3)nn2-c2cccc(CC)c2)c1 [Example 393]

# Same assay, conditions: CHO-K1, at 0.1 uM
row,Structure (SMILES),inhibition at 0.1 µM
1,O=C1C[C@H](C(=O)Nc2cc(-c3cccc(CO[C@H]4CCCOC4)c3)n(-c3ccccc3)n2)CN1 [Example 539],35%
2,C[C@@H](OCc1cc(-c2cc(NC(=O)[C@@H]3CNC(=O)C3)nn2-c2ccccc2)cc(C(F)(F)F)c1)C(F)(F)F [Example 544],21%
3,O=C1C[C@H](C(=O)Nc2cc(-c3cccc(C#CC4CC4)c3)n(-c3ccccc3)n2)CN1 [Example 532],26%
4,O=C1C[C@H](C(=O)Nc2cc(-c3cccc(COC4CCOCC4)c3)n(-c3ccccc3)n2)CN1 [Example 543],15%
5,C[C@@H](OCc1cccc(-c2cc(NC(=O)[C@@H]3CNC(=O)C3)nn2C2CCOCC2)c1)C(F)(F)F [Example 582],47%
6,CCCc1cccc(-c2cc(NC(=O)[C@@H]3CNC(=O)C3)nn2CC(F)(F)F)c1 [Example 67],29%
7,CC(C)(C)OC(=O)c1cccc(-c2cc(NC(=O)[C@@H]3CNC(=O)C3)nn2-c2ccccc2)c1 [Example 413],48%
8,CC(C)N(C)C(=O)c1cccc(-c2cc(NC(=O)[C@@H]3CNC(=O)C3)nn2-c2ccccc2)c1 [Example 432],14%
9,O=C1CC[C@H](C(=O)Nc2cc(-c3cccc(COCC(F)(F)F)c3)n(-c3ccccc3)n2)N1 [Example 548],3%

# More lines, now with the values ahead:
row,inhibition at 0.1 µM,Structure (SMILES)
1,7%,CCCc1cccc(-c2cc(NC(=O)C3CNC(=O)C3(C)C)nn2-c2ccccc2)c1 (stereo not shown) [Example 398]
2,33%,CCCc1cccc(-c2cc(NC(=O)C3CNC(=O)C34CC4)nn2-c2ccccc2)c1 (stereo not shown) [Example 361]
3,17%,COCc1cccc(-c2cc(NC(=O)[C@@H]3CNC(=O)C3)nn2-c2ccccc2)c1 [Example 265]

# Same assay, conditions: CHO-K1, at 0.3 uM
row,inhibition at 0.3 µM,Structure (SMILES)
1,35%,CCCc1cccc(-c2cc(NC(=O)[C@@H]3CN(CC)C(=O)N3)nn2-c2ccccc2)c1 [Example 329]

# Same assay, conditions: CHO-K1, at 1 uM
row,inhibition at 1 µM,Structure (SMILES)
1,9%,CCCc1cc(-c2cc(NC(=O)[C@H]3CNC(=O)C3)nn2-c2ccccc2)ccc1OCC(=O)O [Example 122]
2,43%,CCCc1cc(C(=O)O)cc(-c2cc(NC(=O)[C@H]3CNC(=O)C3)nn2-c2ccccc2)c1 [Example 145]
3,9%,O=C1C[C@@H](C(=O)Nc2cc(-c3cccc(OC(F)(F)F)c3)n(-c3ccc(Cl)c(F)c3)n2)CN1 [Example 174]

# Reference: patent US8846746B2, “Pyrazole compound and pharmaceutical use thereof” (Japan Tobacco Inc., priority 2011, dated 2014)
